According to US7135615B2, “Chromosome doubling method” (The Curators of the University of Missouri, priority 2001, dated 2006):
Marks after values point to notes of the source that are not given here.

Tests used:
[1] = tested on: maize haploid seedlings of origin A619 × B73; assay: doubled haploid production trial, A619 × B73 haploids (Example 4); details: 600 kPa, 2 days; for Ear: No. of kernels produced/ear: selfed
Procedure: (§1) Ten to nineteen plants were treated for each plot. Self pollinations were conducted on these treated haploids if there were fertile sectors on the tassel. Pollen grains were collected carefully on a sheet of paper and transferred to the silks repeatedly. Silks and husks were cut back prior to pollination in order to permit maximum seed set. The numbers of fertile tassel and ear sectors, as well as the numbers of anthers and selfed kernels were recorded. Statistical analyses were as described above.

[2] = tested on: maize Oh43 haploid seedlings; assay: nitrous oxide gas treatment at 3–8 leaf stages, Oh43 haploids (Example 3); details: for Ear (open pollinated): No. of fertile sectors /ear / Ear (open pollinated): No. of kernels produced /ear / Ear (open pollinated): Plants with fertile sectors % / No. of tassel branch Average / Plant height (cm) Average / Tassel: No. of fertile anthers extruded/tassel / Tassel: No. of fertile sectors/tassel / Tassel: Plants with fertile sectors % / Ear (open pollinated): Plants with fertile sectors No. / Tassel: Plants with fertile sectors No. / No. of plants Survived: 600 kPa, 2 days
Excerpt: Leaf stages were defined as follows, At the 3 leaf stage, there are three elongated leaves and the tip of the fourth leaf appears at the center of the leaf whorl. This stage is defined as V2 according to Ritchie et al. (1997). At the 8 leaf stage, there are 8 elongated leaves and the tip of the 9th and 10th leaves appear at the center of the leaf whorl (late V5 stage). At the 6 leaf stage, six elongated leaves are observable, and the tip of seventh leaf appears at the leaf whorl (late V4 or early V5 stage). Nine to sixteen haploid plants were treated at each stage using a large air tight iron chamber (FIG. 3). […] Moistened calcium hydroxide (50 g) wrapped in a paper towel was included to absorb carbon dioxide that is produced by the seedlings, as carbon dioxide at high concentration will injure the seedlings during the treatment. The soil of the pots was dried prior to treatment to prevent root injuries. […] The gas was introduced slowly into the chamber over a 10 minutes time frame.
After the treatment, seedlings were transplanted into larger pots, and grown in a greenhouse. A relatively cool temperature (below 25° C.) was maintained to permit the appropriate development of doubled sectors. At flowering, the ears were cross pollinated by an appropriate pollen source to reveal all the fertile sectors on the ears. On the treated plants, plant height (cm), tassel size (cm), number of tassel branches, ear length (cm), the number of fertile sectors on a tassel and an ear, the number of anthers on a tassel, and the number of kernels on an ear were recorded.
Analyses of variance and Duncan's Multiple Range Tests were performed to determine the effects of treatments on the plant height (cm), tassel size (cm), and ear length (cm). Chi square tests were used to determine the effects of treatments upon the proportion of plants that developed fertile tassel and ear sectors. The ratios of untreated plants with fertile sectors were used to estimate the significance of the ratio of treated plants with fertile sectors.
Nonparametric tests were performed to compare the distributions. The primary test was the Kruskal-Wallis test. In the initial tests, the null hypothesis considered was that the distributions would be the same for each treatment and control. If the null hypothesis was rejected (P<0.05), then pair wise comparisons of each treatment to the control using Dunn's method were conducted. The tassel branch number was low incidence count data and was analyzed using the same nonparametric tests mentioned above.

[3] = tested on: maize haploid seedlings of origin B55 × A619; assay: doubled haploid production trial, B55 × A619 haploids (Example 4); details: 600 kPa, 2 days; for Ear: No. of kernels produced/ear: selfed
Procedure: as §1

## [N-]=[N+]=O [nitrous oxide gas, nitrous oxide]
[1]; 5 leaf stage
  Ear: Plants with kernels after selfing %: 36 n.s. %
  Tassel: No. of fertile anthers extruded/tassel: 20.8** /tassel
  Tassel: Plants with fertile sectors %: 73** %
  Ear: No. of kernels produced/ear: 4.2 n.s. /ear
[1]; 5 leaf stage, 11 survived
  Ear: Plants with kernels after selfing No.: 4
  Tassel: Plants with fertile sectors No.: 8
[1]; 5 leaf stage, 12 treated
  No. of plants Survived: 11
[1]; 6 leaf stage
  Ear: Plants with kernels after selfing %: 36%
  Tassel: No. of fertile anthers extruded/tassel: 34.5** /tassel
  Tassel: No. of fertile sectors/tassel: 1.7** /tassel
  Tassel: Plants with fertile sectors %: 73** %
  Ear: No. of kernels produced/ear: 6.2 /ear
[1]; 6 leaf stage, 11 survived
  Ear: Plants with kernels after selfing No.: 4
  Tassel: Plants with fertile sectors No.: 8
[1]; 6 leaf stage, 11 treated
  No. of plants Survived: 11
[1]; 7 leaf stage
  Ear: Plants with kernels after selfing %: 17%
  Tassel: No. of fertile anthers extruded/tassel: 4.8* /tassel
  Tassel: Plants with fertile sectors %: 75** %
  Ear: No. of kernels produced/ear: 3.5 /ear
[1]; 7 leaf stage, 12 survived
  Ear: Plants with kernels after selfing No.: 2
  Tassel: Plants with fertile sectors No.: 9
[1]; 7 leaf stage, 12 treated
  No. of plants Survived: 12
[2]; 3 leaf stage
  Ear (open pollinated): No. of fertile sectors /ear: 0.7 /ear
  Ear (open pollinated): No. of kernels produced /ear: 0.5 /ear
  Ear (open pollinated): Plants with fertile sectors %: 33%
  No. of tassel branch Average: 3.8**
  Plant height (cm) Average: 106 a cm
  Tassel: No. of fertile anthers extruded/tassel: 0.0 /tassel
  Tassel: No. of fertile sectors/tassel: 0.0 /tassel
  Tassel: Plants with fertile sectors %: 0%
[2]; 3 leaf stage, 12 examined
  Ear (open pollinated): Plants with fertile sectors No.: 4
  Tassel: Plants with fertile sectors No.: 0
[2]; 3 leaf stage, 12 treated
  No. of plants Survived: 12
[2]; 3–4 leaf stage
  effect for increasing the fertile sectors on either tassels and ears: no effect
[2]; 3–8 leaf stage treatments
  number of anthers /tassel, span over treatments: 0–19.7 /tassel
  number of kernels on the ears, span over treatments: 0.5–18.6
[2]; 4 leaf stage
  Ear (open pollinated): No. of fertile sectors /ear: 0.8 /ear
  Ear (open pollinated): No. of kernels produced /ear: 0.8 /ear
  Ear (open pollinated): Plants with fertile sectors %: 46%
  No. of tassel branch Average: 4.4**
  Plant height (cm) Average: 121 b cm
  Tassel: No. of fertile anthers extruded/tassel: 1.5 /tassel
  Tassel: No. of fertile sectors/tassel: 0.3 /tassel
  Tassel: Plants with fertile sectors %: 23%
[2]; 4 leaf stage, 13 examined
  Ear (open pollinated): Plants with fertile sectors No.: 6
  Tassel: Plants with fertile sectors No.: 3
[2]; 4 leaf stage, 13 treated
  No. of plants Survived: 13
[2]; 5 leaf stage
  Ear (open pollinated): No. of fertile sectors /ear: 1.4 /ear
  Ear (open pollinated): No. of kernels produced /ear: 1.8 /ear
  Ear (open pollinated): Plants with fertile sectors %: 46%
  No. of tassel branch Average: 2.9**
  Plant height (cm) Average: 124 b cm
  Tassel: No. of fertile anthers extruded/tassel: 19.7 /tassel
  Tassel: No. of fertile sectors/tassel: 1.2* /tassel
  Tassel: Plants with fertile sectors %: 54** %
[2]; 5 leaf stage, 13 examined
  Ear (open pollinated): Plants with fertile sectors No.: 6
  Tassel: Plants with fertile sectors No.: 7
[2]; 6 leaf stage
  Ear (open pollinated): No. of fertile sectors /ear: 1.5 /ear
  Ear (open pollinated): No. of kernels produced /ear: 18.6 /ear
  Ear (open pollinated): Plants with fertile sectors %: 67%
  No. of tassel branch Average: 5.7
  Plant height (cm) Average: 119 b cm
  Tassel: No. of fertile anthers extruded/tassel: 5.3 /tassel
  Tassel: No. of fertile sectors/tassel: 1.8** /tassel
  Tassel: Plants with fertile sectors %: 100%
[2]; 6 leaf stage, 12 examined
  Ear (open pollinated): Plants with fertile sectors No.: 8
  Tassel: Plants with fertile sectors No.: 12
[2]; 6 leaf stage, 16 treated
  No. of plants Survived: 12
[2]; 7 leaf stage
  Ear (open pollinated): No. of fertile sectors /ear: 0.8 /ear
  Ear (open pollinated): No. of kernels produced /ear: 1.1 /ear
  Ear (open pollinated): Plants with fertile sectors %: 46%
  No. of tassel branch Average: 5.0*
  Plant height (cm) Average: 122 b cm
  Tassel: No. of fertile anthers extruded/tassel: 5.8** /tassel
  Tassel: No. of fertile sectors/tassel: 2.1** /tassel
  Tassel: Plants with fertile sectors %: 69** %
[2]; 7 leaf stage, 13 examined
  Ear (open pollinated): Plants with fertile sectors No.: 6
  Tassel: Plants with fertile sectors No.: 9
[2]; 7 leaf stage, 16 treated
  No. of plants Survived: 13
[2]; 8 leaf stage
  Ear (open pollinated): No. of fertile sectors /ear: 1.0 /ear
  Ear (open pollinated): No. of kernels produced /ear: 4.1 /ear
  Ear (open pollinated): Plants with fertile sectors %: 46%
  No. of tassel branch Average: 5.3*
  Plant height (cm) Average: 122 b cm
  Tassel: No. of fertile anthers extruded/tassel: 3.1** /tassel
  Tassel: No. of fertile sectors/tassel: 1.4** /tassel
  Tassel: Plants with fertile sectors %: 69** %
[2]; 8 leaf stage, 13 examined
  Ear (open pollinated): Plants with fertile sectors No.: 6
  Tassel: Plants with fertile sectors No.: 9
[2]; 8 leaf stage, 16 treated
  No. of plants Survived: 13
[3]; 5 leaf stage
  Ear: Plants with kernels after selfing %: 33%
  Tassel: No. of fertile anthers extruded/tassel: 25.7** /tassel
  Tassel: No. of fertile sectors/tassel: 1.1* /tassel
  Tassel: Plants with fertile sectors %: 67** %
  Ear: No. of kernels produced/ear: 1.3 /ear
[3]; 5 leaf stage, 15 survived
  Ear: Plants with kernels after selfing No.: 5
  Tassel: Plants with fertile sectors No.: 10
[3]; 5 leaf stage, 15 treated
  No. of plants Survived: 15
[3]; 6 leaf stage
  Ear: Plants with kernels after selfing %: 50** %
  Tassel: No. of fertile anthers extruded/tassel: 109.9** /tassel
  Tassel: No. of fertile sectors/tassel: 3.1** /tassel
  Tassel: Plants with fertile sectors %: 71** %
  Ear: No. of kernels produced/ear: 9.5* /ear
[3]; 6 leaf stage, 14 survived
  Ear: Plants with kernels after selfing No.: 7
  Tassel: Plants with fertile sectors No.: 10
[3]; 6 leaf stage, 14 treated
  No. of plants Survived: 14
[3]; 7 leaf stage
  Ear: Plants with kernels after selfing %: 62** %
  Tassel: No. of fertile anthers extruded/tassel: 60.2** /tassel
  Tassel: No. of fertile sectors/tassel: 3.9** /tassel
  Tassel: Plants with fertile sectors %: 92** %
  Ear: No. of kernels produced/ear: 15.7** /ear
[3]; 7 leaf stage, 13 survived
  Ear: Plants with kernels after selfing No.: 8
  Tassel: Plants with fertile sectors No.: 12
[3]; 7 leaf stage, 13 treated
  No. of plants Survived: 13
